Several values for one entry are separate records, joined by “and”; a condition that tells them apart may be missing. Equal entries are not always repeated. Inconclusive results and toxic doses are left out.

This assay relates to L1210 leukemia ip in BDF1 mice, survival T/C. As to the kind of experiment: NCI In Vivo Anticancer Drug Screen. Data for tumor model L1210 Leukemia (intraperitoneal) in B6D2F1 (BDF1) mice. Conditions: endpoint: mean survival time, higher = longer survival. The essentials:
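Ratio derived from survival: compound-dosed mice over vehicle-dosed mice, all bearing a transplantable tumor.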

Where [1] appears, read: dose: 100.0 mg/kg/injection, schedule: Q04DX003 (ip), vehicle: Klucel (hydroxypropylcellulose) (HPC).
Setting [2] is: dose: 100.0 mg/kg/injection, schedule: Q04DX002 (ip), vehicle: saline with Tween-80.
The mark [3] stands for this setting: dose: 200.0 mg/kg/injection, schedule: Q04DX002 (ip), vehicle: saline with Tween-80.
[4] abbreviates: dose: 400.0 mg/kg/injection, schedule: Q04DX002 (ip), vehicle: saline with Tween-80.
[5] abbreviates: dose: 100.0 mg/kg/injection, schedule: Q04DX003 (ip), vehicle: saline.
The mark [6] stands for this setting: dose: 200.0 mg/kg/injection, schedule: Q04DX003 (ip), vehicle: saline.
Where [7] appears, read: dose: 400.0 mg/kg/injection, schedule: Q04DX003 (ip), vehicle: saline.
The mark [8] stands for this setting: dose: 100.0 mg/kg/injection, schedule: Q01DX009 (ip), vehicle: saline.
[9] abbreviates: dose: 200.0 mg/kg/injection, schedule: Q01DX009 (ip), vehicle: saline.
Where [10] appears, read: dose: 100.0 mg/kg/injection, schedule: Q01DX009 (ip), vehicle: Klucel (hydroxypropylcellulose) (HPC).
[11] abbreviates: dose: 200.0 mg/kg/injection, schedule: Q01DX009 (ip), vehicle: Klucel (hydroxypropylcellulose) (HPC).
[12] abbreviates: dose: 400.0 mg/kg/injection, schedule: Q01DX009 (ip), vehicle: Klucel (hydroxypropylcellulose) (HPC).
The mark [13] stands for this setting: dose: 100.0 mg/kg/injection, schedule: Q01DX009 (ip), vehicle: saline with Tween-80.
[14] abbreviates: dose: 100.0 mg/kg/injection, schedule: Q04DX003 (ip), vehicle: saline with Tween-80.
Where [15] appears, read: dose: 25.0 mg/kg/injection, schedule: Q04DX003 (ip), vehicle: Klucel (hydroxypropylcellulose) (HPC).
The mark [16] stands for this setting: dose: 50.0 mg/kg/injection, schedule: Q04DX003 (ip), vehicle: Klucel (hydroxypropylcellulose) (HPC).
[17] abbreviates: dose: 50.0 mg/kg/injection, schedule: Q01DX009 (ip), vehicle: saline with Tween-80.

As for `COc1ccc(Sc2ccccc2N)c([N+](=O)[O-])c1`, the T/C is 100 % of control under setting [1]; 97 % of control (dose: 200.0 mg/kg/injection, schedule: Q04DX003 (ip), vehicle: Klucel (hydroxypropylcellulose) (HPC)); 92 % of control (dose: 400.0 mg/kg/injection, schedule: Q04DX003 (ip), vehicle: Klucel (hydroxypropylcellulose) (HPC)).

With `NC(CSS(=O)(=O)O)=NC1CC2CCC1C2` (stereo unspecified), the T/C was 97 % of control (dose: 6.25 mg/kg/injection, schedule: Q01DX001 (ip), vehicle: saline); 98 % of control (dose: 6.25 mg/kg/injection, schedule: Q01DX009 (ip), vehicle: Klucel (hydroxypropylcellulose) (HPC)); 95 % of control and 103 % of control (dose: 6.25 mg/kg/injection, schedule: Q01DX009 (ip), vehicle: saline); 112 % of control and 117 % of control (dose: 6.25 mg/kg/injection, schedule: Q04DX002 (ip), vehicle: saline); 95 % of control (dose: 12.5 mg/kg/injection, schedule: Q01DX001 (ip), vehicle: saline); 95 % of control (dose: 12.5 mg/kg/injection, schedule: Q01DX009 (ip), vehicle: Klucel (hydroxypropylcellulose) (HPC)). In addition, the T/C (dose: 12.5 mg/kg/injection, schedule: Q01DX009 (ip), vehicle: saline) was 100 % of control and 91 % of control; the T/C (dose: 12.5 mg/kg/injection, schedule: Q04DX002 (ip), vehicle: Klucel (hydroxypropylcellulose) (HPC)) was 100 % of control; the T/C (dose: 12.5 mg/kg/injection, schedule: Q04DX002 (ip), vehicle: saline) was 101 % of control and 87 % of control; the T/C (dose: 25.0 mg/kg/injection, schedule: Q01DX001 (ip), vehicle: saline with Tween-80) is 112 % of control; the T/C (dose: 25.0 mg/kg/injection, schedule: Q01DX001 (ip), vehicle: saline) is 92 % of control; the T/C (dose: 25.0 mg/kg/injection, schedule: Q01DX009 (ip), vehicle: Klucel (hydroxypropylcellulose) (HPC)) was 104 % of control. For the same compound, the T/C (dose: 25.0 mg/kg/injection, schedule: Q01DX009 (ip), vehicle: saline) was 94 % of control and 88 % of control; the T/C (dose: 25.0 mg/kg/injection, schedule: Q04DX002 (ip), vehicle: Klucel (hydroxypropylcellulose) (HPC)) was 92 % of control; the T/C (dose: 50.0 mg/kg/injection, schedule: Q04DX002 (ip), vehicle: saline) is 117 % of control.

For the compound `CC(=O)c1ccc(C(=O)NCCCc2c(-c3ccccc3)nc(N)[nH]c2=O)cc1`, the T/C (dose: 100.0 mg/kg/injection, schedule: Q01DX001 (ip), vehicle: Klucel (hydroxypropylcellulose) (HPC)) is 94 % of control; the T/C (dose: 200.0 mg/kg/injection, schedule: Q01DX001 (ip), vehicle: Klucel (hydroxypropylcellulose) (HPC)) is 94 % of control; the T/C (dose: 400.0 mg/kg/injection, schedule: Q01DX001 (ip), vehicle: Klucel (hydroxypropylcellulose) (HPC)) is 96 % of control.

Take `COc1ccc(Nc2ccc3c4c(cccc24)C(=O)N(c2ccc(OC)cc2)C3=O)cc1`: the T/C under setting [2] is 92 % of control, the T/C under setting [3] is 95 % of control and the T/C under setting [4] is 92 % of control.

Regarding `CC(C)CC[n+]1cccc(C(N)=O)c1`, the T/C reads like this: under setting [5], 100 % of control; under setting [6], 110 % of control; under setting [7], 113 % of control.

On to `C#CCNc1ncnc2c1ncn2C1OC(CO)C(O)C1O` (stereo unspecified), for which the T/C was 105 % of control (dose: 50.0 mg/kg/injection, schedule: Q01DX005 (ip), vehicle: saline); 101 % of control (dose: 100.0 mg/kg/injection, schedule: Q01DX005 (ip), vehicle: saline); 94 % of control (dose: 200.0 mg/kg/injection, schedule: Q01DX005 (ip), vehicle: saline).

Consider `BrCCC[CH2][Sn]([c]1ccccc1)([c]1ccccc1)[c]1ccccc1`, for which the T/C (dose: 50.0 mg/kg/injection, schedule: Q01DX009 (ip), vehicle: saline) is 100 % of control; the T/C under setting [8] is 100 % of control; the T/C under setting [9] was 100 % of control.

As for `COc1ccc(N=NN(C(C)=O)c2ccccc2)cc1`, the T/C runs as follows: under setting [10], 111 % of control; under setting [5], 102 % of control; under setting [11], 110 % of control; under setting [6], 111 % of control; under setting [12], 96 % of control; under setting [7], 123 % of control.

Take `CCCC(=O)Nc1cc(C)ccc1N=Nc1ccc(C)cc1`: the T/C runs as follows: (dose: 100.0 mg/kg/injection, schedule: Q01DX001 (ip), vehicle: saline with Tween-80) 95 % of control; under setting [13], 97 % of control and 105 % of control; under setting [2], 90 % of control and 92 % of control; under setting [14], 100 % of control; (dose: 200.0 mg/kg/injection, schedule: Q01DX001 (ip), vehicle: saline with Tween-80) 103 % of control; (dose: 200.0 mg/kg/injection, schedule: Q01DX009 (ip), vehicle: saline with Tween-80) 88 % of control and 90 % of control. For the same compound, the T/C under setting [3] is 97 % of control and 92 % of control; the T/C (dose: 200.0 mg/kg/injection, schedule: Q04DX003 (ip), vehicle: saline with Tween-80) was 97 % of control; the T/C (dose: 400.0 mg/kg/injection, schedule: Q01DX001 (ip), vehicle: saline with Tween-80) was 98 % of control; the T/C (dose: 400.0 mg/kg/injection, schedule: Q01DX009 (ip), vehicle: saline with Tween-80) is 97 % of control; the T/C under setting [4] was 97 % of control; the T/C (dose: 400.0 mg/kg/injection, schedule: Q04DX003 (ip), vehicle: saline with Tween-80) is 97 % of control.

As to `O=C(O)c1ccc(N=NSc2ncnc3nc[nH]c23)cc1O`, the T/C runs as follows: (dose: 2.5 mg/kg/injection, schedule: Q01DX Z (ip), vehicle: carboxymethylcellulose (CMC)) 150 % of control; (dose: 5.0 mg/kg/injection, schedule: Q01DX Z (ip), vehicle: carboxymethylcellulose (CMC)) 116 % of control; (dose: 10.0 mg/kg/injection, schedule: Q01DX Z (ip), vehicle: carboxymethylcellulose (CMC)) 116 % of control; (dose: 20.0 mg/kg/injection, schedule: Q01DX Z (ip), vehicle: carboxymethylcellulose (CMC)) 107 % of control; (dose: 40.0 mg/kg/injection, schedule: Q01DX015 (ip), vehicle: carboxymethylcellulose (CMC)) 88 % of control.

Take `[Co+2].[N-]=Cc1ccccc1O.[N-]=Cc1ccccc1O`: the T/C is 110 % of control under setting [15]; 113 % of control under setting [16]; 99 % of control and 118 % of control under setting [1].

On to `Clc1ccc(C(c2cccs2)N2CCNCC2)cc1` (stereo unspecified), for which the T/C runs as follows: (dose: 25.0 mg/kg/injection, schedule: Q01DX009 (ip), vehicle: saline with Tween-80) 96 % of control; under setting [17], 90 % of control; under setting [14], 98 % of control.

Turning to `O=C(Oc1ccc([N+](=O)[O-])cc1)c1ccc(C[P+](c2ccccc2)(c2ccccc2)c2ccccc2)cc1`, the T/C runs as follows: under setting [8], 98 % of control; under setting [5], 93 % of control; under setting [9], 98 % of control; under setting [6], 90 % of control; (dose: 400.0 mg/kg/injection, schedule: Q01DX009 (ip), vehicle: saline) 96 % of control; under setting [7], 93 % of control.

As for `COC1=CC2C3=CC(C)C4C(=O)OC(=O)C4C3C1C1C(=O)OC(=O)C21` (stereo unspecified), the T/C runs as follows: under setting [17], 105 % of control; under setting [13], 94 % of control.

As for `CNC(=O)Nc1cc(C)ccc1OC`, the T/C reads like this: under setting [10], 100 % of control; under setting [11], 104 % of control; under setting [12], 109 % of control.

For the compound `C=CCc1cc(CN(CCOCC)Cc2cc(CC=C)cc(OC)c2O)c(O)c(OC)c1`, the T/C is 97 % of control (dose: 12.5 mg/kg/injection, schedule: Q04DX003 (ip), vehicle: Klucel (hydroxypropylcellulose) (HPC)); 95 % of control under setting [15]; 94 % of control under setting [16].

Source of the values: PubChem BioAssay AID248 (DTP/NCI, 2004).
